Measured values from ChEMBL document CHEMBL1129724, “Inhibitory potency of lithocholic acid analogs and other bile acids on glucuronosyltransferase activity in a colon cancer cell line” (Bioorg Med Chem Lett, 1996).

System: HT-29
Experiment: Inhibition of glucuronosyltransferase activity in the human colon cancer cell line HT-29 at 5 uM concentration
Format: cell-based
Set-up: scale not given: the % may be the effect or the level left

Row | SMILES | Activity [%]
1 | C[C@H](CCC(=O)O)[C@H]1CC[C@H]2[C@@H]3CC[C@@H]4C[C@H](O)CC[C@]4(C)[C@H]3CC[C@]12C | 25.3
2 | C[C@@H](CCC(=O)O)[C@H]1CC[C@H]2[C@@H]3[C@H](O)[C@@H](O)[C@@H]4C[C@H](O)CC[C@]4(C)[C@H]3CC[C@]12C | 100
3 | CC(CCC(=O)O)C1CCC2C3C=CC4C[C@@H](O)CCC4(C)C3CCC12C (some centres not stated) | 39.1
4 | CC(CCC(C(=O)O)C(=O)O)[C@H]1CC[C@H]2[C@@H]3CC[C@@H]4C[C@H](O)CC[C@]4(C)[C@H]3CC[C@]12C (some centres not stated) | 74.3
5 | CC(CCC(=O)O)[C@H]1CC[C@H]2[C@@H]3CC[C@@H]4C[C@@H](O)CC[C@]4(C)[C@H]3CC[C@]12C (some centres not stated) | 86.9
6 | CC(CCCOP(=O)(O)O)[C@H]1CC[C@H]2[C@@H]3CC[C@@H]4C[C@H](O)CC[C@]4(C)[C@H]3CC[C@]12C (some centres not stated) | 74
7 | C[C@H](CCC(=O)O)[C@H]1CC[C@H]2[C@@H]3CCC4CC(O)CC[C@]4(C)[C@H]3CC[C@]12C (single isomer, unassigned) | 46.8
8 | C[C@H](CCC(=O)O)[C@H]1CC[C@H]2[C@@H]3[C@@H](O)C[C@@H]4C[C@H](O)CC[C@]4(C)[C@H]3CC[C@]12C | 73.3
9 | CC(CC(O)C(=O)O)[C@H]1CC[C@H]2[C@@H]3CC[C@@H]4C[C@H](O)CC[C@]4(C)[C@H]3CC[C@]12C (stereo in doubt) | 34.9
10 | CC(CCC(=O)O)[C@H]1CC[C@H]2[C@@H]3CC[C@@H]4C[C@@H](O)CC[C@]4(C)[C@H]3C[C@@H](O)[C@]12C (some centres not stated) | 46.4
11 | CC(CCC(=O)O)[C@H]1CC[C@H]2[C@@H]3[C@H](O)[C@H](O)[C@@H]4C[C@H](O)CC[C@]4(C)[C@H]3CC[C@]12C (some centres not stated) | 73.9
12 | CC(CC(O)C(=O)O)[C@H]1CC[C@H]2[C@@H]3CC[C@@H]4C[C@H](O)CC[C@]4(C)[C@H]3CC[C@]12C (mixture of isomers) | 40
13 | C[C@H](CCC(=O)O)[C@H]1CC[C@H]2[C@@H]3CC[C@@H]4CCCC[C@]4(C)[C@H]3CC[C@]12C | 92
14 | CC(CCC(=O)O)[C@H]1CC[C@H]2[C@@H]3[C@@H](O)[C@H](O)[C@@H]4C[C@H](O)CC[C@]4(C)[C@H]3CC[C@]12C (some centres not stated) | 78.5
15 | C[C@H](CCC(=O)O)[C@H]1CC[C@H]2[C@@H]3CC[C@@H]4C[C@H](O)CCC4(C)[C@H]3CC(O)[C@]12C (single isomer, unassigned) | 48
16 | CC(CCC(=O)O)[C@H]1CC[C@H]2[C@@H]3CC[C@@H]4CC(=O)CC[C@]4(C)[C@H]3CC[C@]12C (some centres not stated) | 46
17 | CC(CCCCC(=O)O)[C@H]1CC[C@H]2[C@@H]3CC[C@@H]4C[C@H](O)CC[C@]4(C)[C@H]3CC[C@]12C (some centres not stated) | 41.9
18 | C[C@H](CCC(=O)O)[C@H]1CC[C@H]2[C@@H]3[C@H](O)C[C@@H]4C[C@H](O)CC[C@]4(C)[C@H]3CC[C@]12C | 38.4
19 | CC(CCC(=O)O)[C@H]1CC[C@H]2[C@@H]3C(=O)C[C@@H]4C[C@H](O)CC[C@]4(C)[C@H]3CC(=O)[C@]12C (some centres not stated) | 100
20 | CC(CCC(=O)O)C1CCC2C3C=CC4C[C@H](O)CCC4(C)C3CCC12C (some centres not stated) | 41.4
21 | CC(CCCO)[C@H]1CC[C@H]2[C@@H]3CC[C@@H]4C[C@H](O)CC[C@]4(C)[C@H]3CC[C@]12C (some centres not stated) | 72.8
22 | CC(CCC(=O)O)[C@H]1CC[C@H]2[C@@H]3CC[C@@H]4C[C@H](O)CC[C@]4(C)[C@H]3CC(=O)[C@]12C (some centres not stated) | 36.1
23 | CC(CC(O)C(=O)O)[C@H]1CC[C@H]2[C@@H]3CC[C@@H]4C[C@H](O)CC[C@]4(C)[C@H]3CC[C@]12C (single isomer, unassigned) | 55.4
24 | CC(CCC(=O)O)[C@H]1CC[C@H]2[C@@H]3[C@H](O)C[C@@H]4C[C@H](O)CC[C@]4(C)[C@H]3C[C@@H](O)[C@]12C (some centres not stated) | 98.3
25 | C[C@H](CCC(=O)O)[C@H]1CC[C@H]2[C@@H]3CC(O)[C@@H]4C[C@H](O)CC[C@]4(C)[C@H]3CC[C@]12C (single isomer, unassigned) | 75.2
26 | CC(CCC(=O)O)[C@H]1CC[C@H]2[C@@H]3CC(=O)[C@@H]4C[C@H](O)CC[C@]4(C)[C@H]3CC[C@]12C (some centres not stated) | 28.1
27 | CC(CCC(=O)O)[C@H]1CC[C@H]2[C@@H]3C(=O)C[C@@H]4C[C@H](O)CC[C@]4(C)[C@H]3CC[C@]12C (some centres not stated) | 51.1
